Converted amounts (≈) assume the structure as drawn.
Legend:
Bacillus pumilus [1] = assay: Antibacterial activity against Bacillus pumilus assessed as inhibition of bacterial growth by microdilution method; assay type: functional
Enterococcus faecalis [2] = assay: Antibacterial activity against […] assessed as inhibition of bacterial growth by microdilution method; assay type: functional
Escherichia coli = assay: Antibacterial activity against Escherichia coli assessed as inhibition of bacterial growth by microdilution method; assay type: functional
Enterobacter cloacae [3] = assay: Antibacterial activity against Enterobacter cloacae assessed as inhibition of bacterial growth by microdilution method; assay type: functional
Aspergillus niger [4] = assay: Antifungal activity against Aspergillus niger assessed as inhibition of fungal growth by microdilution method; assay type: functional
Candida albicans [5] = assay: Antifungal activity against Candida albicans assessed as inhibition of fungal growth by microdilution method; assay type: functional
Bacillus pumilus [6] = assay: Antibacterial activity against Bacillus pumilus assessed as inhibition of bacterial growth at MIC by microdilution method; assay type: functional
Enterococcus faecalis [7] = assay: Antibacterial activity against […] assessed as inhibition of bacterial growth at MIC by microdilution method; assay type: functional
Enterobacter cloacae [8] = assay: Antibacterial activity against Enterobacter cloacae assessed as inhibition of bacterial growth at MIC by microdilution method; assay type: functional
Aspergillus niger [9] = assay: Antifungal activity against Aspergillus niger assessed as inhibition of fungal growth at MIC by microdilution method; assay type: functional
Candida albicans [10] = assay: Antifungal activity against Candida albicans assessed as inhibition of fungal growth at MIC by microdilution method; assay type: functional
Bacillus pumilus [11] = assay: Antibacterial activity against Bacillus pumilus assessed as minimum bactericidal concentration by microdilution method; assay type: functional
Enterococcus faecalis [12] = assay: Antibacterial activity against […] assessed as minimum bactericidal concentration by microdilution method; assay type: functional
Enterobacter cloacae [13] = assay: Antibacterial activity against Enterobacter cloacae assessed as minimum bactericidal concentration by microdilution method; assay type: functional
Aspergillus niger [14] = assay: […] activity against Aspergillus niger assessed as […] by microdilution method; assay type: functional
Candida albicans [15] = assay: […] activity against Candida albicans assessed as […] by microdilution method; assay type: functional
Caco-2 = assay: Anticancer activity against human Caco-2 cells assessed as reduction in cell viability by MTT assay; assay type: functional, cell-based
[16] = Cytotoxicity against African green monkey Vero cells assessed as reduction in cell viability by MTT assay; assay type: toxicity, cell-based; details: African green monkey (Chlorocebus sabaeus)
U-937 = assay: Induction of apoptosis in human U-937 cells assessed as total apoptotic cells at 50 uM incubated for 50 hrs by FACS analysis; assay type: functional
[17] = target: NAD-dependent protein deacetylase sirtuin-1 (Homo sapiens, UniProt Q96EB6); assay: Inhibition of recombinant human SIRT1 expressed in Escherichia coli using Fluor de Lys-SIRT1/2 substrate in presence of NAD+ by fluorescence microplate reader analysis
Sequence of NAD-dependent protein deacetylase sirtuin-1 (Q96EB6 whole entry): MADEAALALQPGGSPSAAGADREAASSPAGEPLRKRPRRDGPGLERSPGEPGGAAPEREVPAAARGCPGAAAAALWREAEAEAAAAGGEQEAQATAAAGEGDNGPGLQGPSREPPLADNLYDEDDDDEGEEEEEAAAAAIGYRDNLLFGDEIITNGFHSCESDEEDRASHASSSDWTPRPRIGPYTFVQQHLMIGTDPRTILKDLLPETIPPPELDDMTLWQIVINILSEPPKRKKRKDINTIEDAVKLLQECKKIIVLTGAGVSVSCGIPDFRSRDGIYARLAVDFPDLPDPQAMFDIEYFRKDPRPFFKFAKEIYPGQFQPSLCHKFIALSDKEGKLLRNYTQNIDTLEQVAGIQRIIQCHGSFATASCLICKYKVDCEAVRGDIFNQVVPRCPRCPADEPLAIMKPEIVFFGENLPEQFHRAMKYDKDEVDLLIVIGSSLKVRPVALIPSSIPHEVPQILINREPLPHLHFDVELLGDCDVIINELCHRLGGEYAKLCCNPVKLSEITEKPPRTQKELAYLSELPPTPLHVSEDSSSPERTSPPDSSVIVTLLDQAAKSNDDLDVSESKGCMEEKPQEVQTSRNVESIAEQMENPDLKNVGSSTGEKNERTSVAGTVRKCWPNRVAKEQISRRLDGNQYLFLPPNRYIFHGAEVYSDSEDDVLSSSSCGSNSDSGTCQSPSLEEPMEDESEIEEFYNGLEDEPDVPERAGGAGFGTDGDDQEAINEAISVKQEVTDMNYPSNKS

COc1ccc(N2C(=O)C3C(c4ccccc4)C(C#N)=C(N)OC3N(c3ccc(OC)cc3)C2=S)cc1 (stereo not given)
MIC (Bacillus pumilus [1]): 15.6 µg/mL (≈ 30.4 µM) | MIC (Enterococcus faecalis [2]): 7.81 µg/mL (≈ 15.2 µM) | MIC (Escherichia coli): 3.91 µg/mL (≈ 7.63 µM) | MIC (Enterobacter cloacae [3]): 31.2 µg/mL (≈ 60.9 µM) | MIC (Aspergillus niger [4]): 62.5 µg/mL | MIC (Candida albicans [5]): 31.2 µg/mL | inhibition (INH) (Bacillus pumilus [6]): 51.3% | inhibition (INH) (Enterococcus faecalis [7]): 78.6% | inhibition (INH) (Enterobacter cloacae [8]): 50.5% | inhibition (INH) (Aspergillus niger [9]): 88.3% | inhibition (INH) (Candida albicans [10]): 85.5% | MBC (Bacillus pumilus [11]): 62.5 µg/mL (≈ 122 µM) | MBC (Enterococcus faecalis [12]): 31.3 µg/mL (≈ 61.1 µM) | MBC (Enterobacter cloacae [13]): 15.6 µg/mL (≈ 30.4 µM) | MBC (Aspergillus niger [14]): 125 µg/mL (≈ 244 µM) | MBC (Candida albicans [15]): 125 µg/mL (≈ 244 µM) | IC50 (Caco-2): 65.9 µg/mL (≈ 129 µM) | IC50 [16]: 138 µg/mL (≈ 269 µM)

O=c1nc2oc3ccc4ccccc4c3cc-2c(=O)n1-c1ccccc1
Activity (U-937): 28.4%

O=C1N=C2Oc3ccccc3CC2C(=O)N1c1ccccc1 (stereo not given)
IC50 [17]: 4.2 µM

From ChEMBL document CHEMBL5241112, “Insights into the recent progress in the medicinal chemistry of pyranopyrimidine analogs” (RSC Med Chem, 2022)
